Here are results for four compounds from ChEMBL document CHEMBL1201862, “PubChem BioAssay data set” (2004).

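Dose response: 5 concentrations. Exposure: 48 h. Format: 96-well plates. Endpoint: linear interpolation; highest concentration if not reached. GI50 is the concentration that inhibits growth by half.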 The source made the active and inactive calls. No stated cut-off is given here; in the data, active = GI50 up to about 1.1 µM and inactive = higher. Some results are limits rather than exact numbers.

Among the test systems are A498; M14; SK-MEL-28; SK-MEL-5; DU-145; HCT-15; U-251; SNB-75; NCI-H460; CAKI-1; OVCAR-5; SNB-19; HCC 2998; SK-OV-3; CCRF-CEM; UACC-62; NCI-H226; OVCAR-4; IGROV-1.
Holding throughout (assay): inhibition of tumour cell growth, NCI panel, 48 h

`COc1cccc2nc3ccccc3nc12`: the GI50 with A498 is 76.9 µM (inactive); in the experiment on M14, > 100 µM (inactive); with SK-MEL-28, > 100 µM (inactive); in the experiment on SK-MEL-5, 54.8 µM (inactive); with DU-145, > 100 µM (inactive); in the experiment on HCT-15, 39.1 µM. The GI50 with U-251 is 55.5 µM (inactive); with SNB-75 it was 60 µM (inactive); in the experiment on NCI-H460 it was 39.8 µM (inactive); in the experiment with CAKI-1, 61 µM (inactive); with OVCAR-5, > 100 µM (inactive); with SNB-19, 94.6 µM (inactive). Further, the GI50 with HCC 2998 is 79.4 µM (inactive); in the experiment with SK-OV-3, > 100 µM (inactive); in the experiment on CCRF-CEM it was 43.4 µM (inactive); with UACC-62, 50.9 µM (inactive); in the experiment on NCI-H226 it was 45.5 µM (inactive).
For `Cc1[nH]c2ccccc2c1CC/C(=N\Nc1ccccc1)c1ccccc1`, the GI50 is > 100 µM (inactive) with A498; > 100 µM (inactive) with M14; > 100 µM (inactive) in the experiment with SK-MEL-28; > 100 µM (inactive) in the experiment on SK-MEL-5; greater than 100 µM in the experiment with HCT-15; > 100 µM (inactive) in the experiment with U-251. Besides, the GI50 in the experiment on SNB-75 is 28.7 µM (inactive); in the experiment with NCI-H460 it was > 100 µM (inactive); in the experiment on CAKI-1 it was > 100 µM (inactive); in the experiment with OVCAR-5, > 100 µM (inactive); in the experiment on HCC 2998, > 100 µM (inactive); with SK-OV-3, > 100 µM (inactive). In addition, the GI50 in the experiment on CCRF-CEM, in the experiment on UACC-62, in the experiment on OVCAR-4, with IGROV-1 and in the experiment with NCI-H226 was > 100 µM (inactive) each time.
For the compound `CCOC(=O)[C@@H]1ON2O[C@@H](OC3CCCCC3c3ccccc3)C[C@H]3OC(=O)[C@@H]1C32` (stereo partly specified), the GI50 in the experiment on A498 was > 100 µM (inactive); in the experiment on M14 it was > 100 µM (inactive); in the experiment on SK-MEL-5, > 100 µM (inactive); in the experiment with DU-145, > 100 µM (inactive); in the experiment on HCT-15, greater than 100 µM; in the experiment with U-251, > 100 µM (inactive). Moreover, the GI50 is > 100 µM (inactive) with SNB-75; 38.1 µM (inactive) in the experiment on NCI-H460; 51.9 µM (inactive) with CAKI-1; > 100 µM (inactive) with OVCAR-5; 66.7 µM (inactive) with HCC 2998; > 100 µM (inactive) with SK-OV-3. Also, the GI50 was 0.792 µM (active) with CCRF-CEM, > 100 µM (inactive) in the experiment on UACC-62, > 100 µM (inactive) in the experiment on IGROV-1 and 93.8 µM (inactive) in the experiment on NCI-H226.
For the compound `CCN(CC)C(=O)c1cc([N+](=O)[O-])c(=O)n2c1[nH]c1ccccc12`, the GI50 in the experiment on M14, with SK-MEL-28, in the experiment on SK-MEL-5, in the experiment with DU-145, with SNB-75 and in the experiment with NCI-H460 was > 100 µM (inactive) each time. Besides, the GI50 in the experiment on CAKI-1, in the experiment on OVCAR-5, in the experiment on SNB-19, with HCC 2998, with SK-OV-3 and with CCRF-CEM was > 100 µM (inactive) in each case. Besides, the GI50 in the experiment on UACC-62, in the experiment on OVCAR-4, in the experiment with IGROV-1 and with NCI-H226 was > 100 µM (inactive) each time.
